Molecular target: T1, ZIKV RdRp (ZIKV NS5 RdRp domain) (Zika virus, UniProt A0A0X1LH65)
T1 construct: RdRp domain residues 275-903 of NS5, cut from the genome polyprotein; E. coli BL21(DE3)-pRIL; 75 kDa
Assay: real-time SYTO […] fluorescence polymerization assay
Type: biochemical

T1 sequence (A0A0X1LH65 2795-3423): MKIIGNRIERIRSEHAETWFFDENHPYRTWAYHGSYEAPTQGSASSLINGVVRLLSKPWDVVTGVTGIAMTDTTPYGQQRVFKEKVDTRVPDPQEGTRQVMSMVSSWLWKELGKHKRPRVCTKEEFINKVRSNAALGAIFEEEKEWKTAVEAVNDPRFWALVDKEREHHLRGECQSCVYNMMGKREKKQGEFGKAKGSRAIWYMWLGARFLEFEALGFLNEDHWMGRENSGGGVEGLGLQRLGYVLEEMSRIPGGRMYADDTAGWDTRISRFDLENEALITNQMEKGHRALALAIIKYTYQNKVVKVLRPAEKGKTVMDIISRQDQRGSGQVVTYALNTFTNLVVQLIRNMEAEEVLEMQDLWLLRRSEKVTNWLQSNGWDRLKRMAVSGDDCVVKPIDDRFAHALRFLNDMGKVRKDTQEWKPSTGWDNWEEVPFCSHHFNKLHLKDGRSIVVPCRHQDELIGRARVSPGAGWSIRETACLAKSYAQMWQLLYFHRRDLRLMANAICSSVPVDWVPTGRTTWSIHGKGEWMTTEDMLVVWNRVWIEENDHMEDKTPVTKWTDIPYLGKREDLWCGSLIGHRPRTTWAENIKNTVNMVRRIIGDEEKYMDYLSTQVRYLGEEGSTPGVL

SMILES	IC50
Nc1ncnc2c1ncn2[C@@H]1O[C@H](COP(=O)(O)OP(=O)(O)OP(=O)(O)O)C[C@H]1O [cordycepin 5′-triphosphate]	54 ± 7 µM
NC(=O)c1ncn([C@@H]2O[C@H](CO[P@@](=O)(O)O[P@](=O)(O)OP(=O)(O)O)[C@@H](O)[C@H]2O)n1 [ribavirin 5′-triphosphate]	946 ± 46 µM
